Values quoted from earlier work in patent US20110159084A1, “RALOXIFENE PHARMACEUTICAL FORMULATIONS” (DR. REDDY'S LABORATORIES LTD., priority 2008, published 2011).

How the values were obtained:
[1] = 37° C.
[2] = in vivo

| solubility in simulated gastric fluid (SGF) USP ([1]; SGF USP) [µg/mL] | solubility in simulated intestinal fluid (SIF) USP ([1]; SIF USP) [µg/mL] | Compound | absolute bioavailability [2] | intra-subject pharmacokinetic variability [2] |
| --- | --- | --- | --- | --- |
| 3 | 2 | Cl.O=C(c1ccc(OCCN2CCCCC2)cc1)c1c(-c2ccc(O)cc2)sc2cc(O)ccc12 [Raloxifene hydrochloride, methanone, [6-hydroxy-2-(4-hydroxyphenyl)benzo[b]thiene-3-yl]-[4-[2-(1-piperidinyl)ethoxy]phenyl]-, hydrochloride] | about 2% | – |
| – | – | Raloxifene | 2% | approximately 30 % coefficient of variation |
